Reference: PMC10982999, “Structure-Guided Design and Optimization of Covalent VHL-Targeted Sulfonyl Fluoride PROTACs” (Journal of Medicinal Chemistry, 2024)

Assays:
AR-HiBiT LNCaP cells = settings: 16 h, 75 μM-1 pM
[1] = target: T1, AR (AR-HiBiT LNCaP cells) (Homo sapiens, UniProt P10275, T878A); experiment: AR HiBiT degradation assay; format: cell-based; settings: for Dmax / DC50: LNCaP; for Dmax: read-out: Dmax (AR degradation); for AR degradation in presence of MLN4924: MLN4924 1 μM 3 h pretreatment, then compound 18 h; for AR degradation in presence of epoxomicin: epoxomicin 1 μM 3 h pretreatment, then compound 16 h; for DC50: read-out: DC50 (AR degradation), 16 h
T1 construct: host or cells: AR-HiBiT KI LNCaP
T1 sequence (P10275 1-920 T878A): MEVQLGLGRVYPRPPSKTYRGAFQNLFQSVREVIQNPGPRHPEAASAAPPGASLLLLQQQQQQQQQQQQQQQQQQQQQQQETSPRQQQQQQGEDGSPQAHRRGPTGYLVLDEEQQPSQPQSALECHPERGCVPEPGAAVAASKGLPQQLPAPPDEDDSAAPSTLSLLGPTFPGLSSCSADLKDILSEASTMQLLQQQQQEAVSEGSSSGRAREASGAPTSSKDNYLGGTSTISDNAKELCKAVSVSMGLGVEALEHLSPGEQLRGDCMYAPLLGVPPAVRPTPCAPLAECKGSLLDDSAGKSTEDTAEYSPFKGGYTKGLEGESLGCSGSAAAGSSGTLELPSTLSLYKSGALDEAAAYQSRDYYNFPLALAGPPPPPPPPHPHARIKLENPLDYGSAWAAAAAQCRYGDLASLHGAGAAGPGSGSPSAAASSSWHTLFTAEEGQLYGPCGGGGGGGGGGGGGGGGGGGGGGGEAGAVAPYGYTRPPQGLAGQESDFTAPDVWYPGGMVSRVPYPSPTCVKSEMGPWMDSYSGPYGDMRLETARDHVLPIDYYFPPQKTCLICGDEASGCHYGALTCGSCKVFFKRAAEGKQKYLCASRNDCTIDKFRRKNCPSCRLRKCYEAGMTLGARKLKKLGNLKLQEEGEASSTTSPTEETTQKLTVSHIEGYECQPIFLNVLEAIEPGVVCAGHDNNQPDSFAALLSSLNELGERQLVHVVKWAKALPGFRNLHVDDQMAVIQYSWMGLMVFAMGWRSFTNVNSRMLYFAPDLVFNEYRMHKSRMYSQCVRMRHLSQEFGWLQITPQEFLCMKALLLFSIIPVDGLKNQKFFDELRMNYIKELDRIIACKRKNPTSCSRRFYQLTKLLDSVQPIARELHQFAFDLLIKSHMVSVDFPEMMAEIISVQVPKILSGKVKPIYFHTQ
Experimental: Cellular BRD4/AR HiBiT assay
The HiBiT tagged cells were seeded at 10,000 cells per well in a 384-well plate (Thermo Scientific, 164610) at 25 µL per well in DMEM media containing 10% FBS and incubated overnight. Compounds were dispensed using D300e Digital Dispenser (HP) and normalized to 0.1% DMSO. Cells were pre-treated with Epoxomicin or MLN4924 for 3 h before treatment […]
Nano -Glo HiBiT lytic detection assay was performed as described in the manufacturer protocol (Promega). 25 µL of premixed detection reagent was added to each well of the 384 well assay plate and incubated for 15 min on an orbital shaker (at 600 RPM), and luminescence was read using a PHERAstar FS plate reader (BMG Labtech). Corresponding background RLU values were subtracted from DMSO control values and the percentage of protein (%) of were then calculated against […]
DMSO-treated controls. […]
1:1000 WB), Tubulin (Sigma #4967S 1:5000 WB).

Structure (SMILES): Cc1cc([C@H](C(=O)N2C[C@H](S(=O)(=O)F)C[C@H]2C(=O)N[C@@H](CC(=O)N2CCC(C#Cc3ccc(C(=O)N[C@H]4C(C)(C)[C@H](Oc5ccc(C#N)c(C(F)(F)F)c5)C4(C)C)cc3)CC2)c2ccc(-c3scnc3C)cc2)C(C)C)on1 [AR-VHL-SF2, (3R,5S)-5-(((S)-3-(4-((4-(((1r,3r)-3-(4-Cyano-3-(trifluoromethyl)phenoxy)-2,2,4,4-tetramethyl-cyclobutyl)carbamoyl)phenyl)ethynyl)piperidin-1-yl)-1-(4-(4-methylthiazol-5-yl)phenyl)-3-oxo-propyl)carbamoyl)-1-((R)-3-methyl-2-(3-methylisoxazol-5-yl)butanoyl)pyrrolidine-3-sulfonyl fluoride]
- cytotoxicity (CellTiter-Glo) (AR-HiBiT LNCaP cells): did not exhibit cytotoxicity
- Dmax [1]: 54%
- AR degradation in presence of MLN4924 [1]: AR degradation blockade
- AR degradation in presence of epoxomicin [1]: AR degradation blockade
- DC50 [1]: 0.527 µM

Structure (SMILES): Cc1cc([C@H](C(=O)N2C[C@H](S(=O)(=O)F)C[C@H]2C(=O)N[C@@H](CC(=O)N2CCC(C#Cc3ccc(C(=O)N[C@H]4C(C)(C)[C@H](Oc5ccc(C#N)c(Cl)c5)C4(C)C)cc3)CC2)c2ccc(-c3scnc3C)cc2)C(C)C)on1 [AR2-VHL-SF2, (3R,5S)-5-(((S)-3-(4-((4-(((1r,3r)-3-(3-Chloro-4-cyanophenoxy)-2,2,4,4-tetramethylcyclobutyl)-carbamoyl)phenyl)ethynyl)piperidin-1-yl)-1-(4-(4-methylthiazol-5-yl)phenyl)-3-oxopropyl)-carbamoyl)-1-((R)-3-methyl-2-(3-methylisoxazol-5-yl)butanoyl)pyrrolidine-3-sulfonyl fluoride]
- cytotoxicity (CellTiter-Glo) (AR-HiBiT LNCaP cells): did not exhibit cytotoxicity
- Dmax [1]: 59%
- AR degradation in presence of MLN4924 [1]: AR degradation blockade
- AR degradation in presence of epoxomicin [1]: AR degradation blockade
- DC50 [1]: 0.212 µM
